# Measured values published in ChEMBL document CHEMBL4130471, “Design and synthesis of tranylcypromine derivatives as novel LSD1/HDACs dual inhibitors for cancer treatment” (Eur J Med Chem, 2017).
# pIC50: −log10 of the molar value. Active and inactive are the calls of the source. No cut-off for these calls is given here.
# Columns and labels:
# [1] = biological target: T1, Amine oxidase [flavin-containing] B (Homo sapiens, UniProt P27338)
# T1 sequence (P27338 whole entry): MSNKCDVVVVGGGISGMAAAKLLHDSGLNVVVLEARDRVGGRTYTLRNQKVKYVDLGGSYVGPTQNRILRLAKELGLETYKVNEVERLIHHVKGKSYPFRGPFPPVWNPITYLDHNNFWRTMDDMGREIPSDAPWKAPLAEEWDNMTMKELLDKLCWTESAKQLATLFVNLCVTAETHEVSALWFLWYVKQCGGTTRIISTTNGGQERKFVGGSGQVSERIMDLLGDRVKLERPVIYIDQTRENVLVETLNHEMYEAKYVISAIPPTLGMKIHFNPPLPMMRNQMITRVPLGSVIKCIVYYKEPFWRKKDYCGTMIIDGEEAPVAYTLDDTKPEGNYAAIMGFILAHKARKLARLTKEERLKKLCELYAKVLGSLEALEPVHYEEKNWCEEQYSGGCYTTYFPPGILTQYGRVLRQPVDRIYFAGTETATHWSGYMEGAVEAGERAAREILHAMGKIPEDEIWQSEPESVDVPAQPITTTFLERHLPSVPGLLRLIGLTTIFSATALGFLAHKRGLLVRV
# Description: Inhibition of MAOB (unknown origin) using beetle luciferin as substrate by MAO-Glo assay
# [2] = biological target: T2, Amine oxidase [flavin-containing] A (Homo sapiens, UniProt P21397)
# T2 sequence (P21397 whole entry): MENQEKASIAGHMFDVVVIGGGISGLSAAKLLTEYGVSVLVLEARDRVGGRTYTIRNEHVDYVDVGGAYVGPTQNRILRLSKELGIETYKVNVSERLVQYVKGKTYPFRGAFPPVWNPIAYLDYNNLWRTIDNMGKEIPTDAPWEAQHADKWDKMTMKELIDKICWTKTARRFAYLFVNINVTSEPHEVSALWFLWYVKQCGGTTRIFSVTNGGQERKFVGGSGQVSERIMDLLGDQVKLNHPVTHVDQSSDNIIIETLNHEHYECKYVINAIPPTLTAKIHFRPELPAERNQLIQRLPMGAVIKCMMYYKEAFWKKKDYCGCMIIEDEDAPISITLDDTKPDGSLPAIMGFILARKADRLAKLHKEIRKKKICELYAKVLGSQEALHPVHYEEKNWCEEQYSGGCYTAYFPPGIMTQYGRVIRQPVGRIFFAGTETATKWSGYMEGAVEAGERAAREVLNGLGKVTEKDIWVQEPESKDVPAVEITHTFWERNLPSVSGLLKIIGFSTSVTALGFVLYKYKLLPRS
# Description: Inhibition of MAOA (unknown origin) using beetle luciferin as substrate by MAO-Glo assay
# MGC-803 [3] = test: Induction of apoptosis in human MGC803 cells assessed as necrotic cells level at 2.5 uM incubated for 24 hrs by Annexin-V-FITC/propidium iodide staining based flow cytometry (reference value: 0.596%); type: functional
# Histone deacetylase 1 = Histone deacetylase 1 (Homo sapiens, UniProt Q13547); test: Inhibition of C-terminal His-tagged and C-terminal FLAG-tagged human HDAC1 expressed in baculovirus expression system using Ac-peptide substrate incubated for 15 mins by fluorescence based assay
# SW-620 = test: cells; type: functional, cell-based; conditions: Homo sapiens, SW-620, 72 h
# Description: Antiproliferative activity against human SW620 cells incubated for 72 hrs by MTT assay
# MCF7 = test: cells; type: functional, cell-based; conditions: Homo sapiens, MCF7, 72 h
# Description: Antiproliferative activity against human MCF7 cells incubated for 72 hrs by MTT assay
# MGC-803 [4] = test: Induction of apoptosis in human MGC803 cells assessed as early apoptotic cells level at 7.5 uM incubated for 48 hrs by Annexin-V-FITC/propidium iodide staining based flow cytometry (reference value: 7.35%); type: functional
# [5] = biological target: T3, Lysine-specific histone demethylase 1A (Homo sapiens, UniProt O60341); test: Inhibition of LSD1 in human MGC803 cells assessed as increase in cellular H3K9me2 levels incubated for 24 hrs by Western blot; type: cell-based
# MGC-803 [6] = test: Induction of apoptosis in human MGC803 cells assessed as early apoptotic cells level at 2.5 uM incubated for 48 hrs by Annexin-V-FITC/propidium iodide staining based flow cytometry (reference value: 7.35%); type: functional
# MGC-803 [7] = test: Induction of mitochondrial membrane potential loss in human MGC803 cells assessed as FL2 red fluorescence level at 2.5 uM incubated for 48 hrs by JC1 staining based flow cytometry (reference value: 5.47%); type: functional
# MGC-803 [8] = test: Induction of mitochondrial membrane potential loss in human MGC803 cells incubated for 48 hrs by JC1 staining based flow cytometry; type: functional, cell-based
# Histone deacetylase 2 = Histone deacetylase 2 (Homo sapiens, UniProt Q92769)
# Description: Inhibition of C-terminal His-tagged full length human HDAC2 expressed in baculovirus expression system using Ac-peptide substrate incubated for 15 mins by fluorescence based assay
# MGC-803 [9] = test: Induction of apoptosis in human MGC803 cells assessed as late apoptotic cells level at 5 uM incubated for 48 hrs by Annexin-V-FITC/propidium iodide staining based flow cytometry (reference value: 0.121%); type: functional
# MGC-803 [10] = test: Induction of apoptosis in human MGC803 cells assessed as viable cells level at 7.5 uM incubated for 24 hrs by Annexin-V-FITC/propidium iodide staining based flow cytometry (reference value: 94.6%); type: functional
# [11] = biological target: T3, Lysine-specific histone demethylase 1A; test: Inhibition of LSD1 in human MGC803 cells assessed as increase in cellular H3K4me3 levels at 2 uM incubated for 24 hrs by Western blot; type: cell-based
# MGC-803 [12] = test: Induction of apoptosis in human MGC803 cells assessed as viable cells level at 7.5 uM incubated for 48 hrs by Annexin-V-FITC/propidium iodide staining based flow cytometry (reference value: 92.3%); type: functional
# MGC-803 [13] = test: Induction of apoptosis in human MGC803 cells assessed as necrotic cells level at 5 uM incubated for 24 hrs by Annexin-V-FITC/propidium iodide staining based flow cytometry (reference value: 0.596%); type: functional
# MGC-803 [14] = test: Induction of apoptosis in human MGC803 cells assessed as early apoptotic cells level at 2.5 uM incubated for 24 hrs by Annexin-V-FITC/propidium iodide staining based flow cytometry (reference value: 4.37%); type: functional
# PC-3 = test: cells; type: functional, cell-based; conditions: Homo sapiens, PC-3, 72 h
# Description: Antiproliferative activity against human PC3 cells incubated for 72 hrs by MTT assay
# Histone deacetylase 5 = Histone deacetylase 5 (Homo sapiens, UniProt Q9UQL6); test: Inhibition of C-terminal His-tagged human HDAC5 (656-1122 residues) expressed in baculovirus expression system using Ac-peptide substrate incubated for 15 mins by fluorescence based assay; conditions: read-out: IC50
# MGC-803 [15] = test: Induction of apoptosis in human MGC803 cells assessed as viable cells level at 5 uM incubated for 48 hrs by Annexin-V-FITC/propidium iodide staining based flow cytometry (reference value: 92.3%); type: functional
# MGC-803 [16] = test: Induction of apoptosis in human MGC803 cells assessed as necrotic cells level at 2.5 uM incubated for 48 hrs by Annexin-V-FITC/propidium iodide staining based flow cytometry (reference value: 0.242%); type: functional
# [17] = biological target: T3, Lysine-specific histone demethylase 1A
# MGC-803 [18] = test: Induction of apoptosis in human MGC803 cells assessed as necrotic cells level at 5 uM incubated for 48 hrs by Annexin-V-FITC/propidium iodide staining based flow cytometry (reference value: 0.242%); type: functional
# MGC-803 [19] = test: Induction of apoptosis in human MGC803 cells assessed as necrotic cells level at 7.5 uM incubated for 48 hrs by Annexin-V-FITC/propidium iodide staining based flow cytometry (reference value: 0.242%); type: functional
# MGC-803 [20] = test: Induction of apoptosis in human MGC803 cells assessed as late apoptotic cells level at 5 uM incubated for 24 hrs by Annexin-V-FITC/propidium iodide staining based flow cytometry (reference value: 0.447%); type: functional
# MGC-803 [21] = test: Induction of apoptosis in human MGC803 cells assessed as viable cells level at 2.5 uM incubated for 24 hrs by Annexin-V-FITC/propidium iodide staining based flow cytometry (reference value: 94.6%); type: functional
# MGC-803 [22] = test: Induction of apoptosis in human MGC803 cells assessed as early apoptotic cells level at 5 uM incubated for 48 hrs by Annexin-V-FITC/propidium iodide staining based flow cytometry (reference value: 7.35%); type: functional
# [23] = biological target: T3, Lysine-specific histone demethylase 1A; test: Inhibition of LSD1 in human MGC803 cells assessed as increase in cellular H3K4me3 levels at 1 uM incubated for 24 hrs by Western blot; type: cell-based
# MGC-803 [24] = test: Induction of apoptosis in human MGC803 cells assessed as viable cells level at 2.5 uM incubated for 48 hrs by Annexin-V-FITC/propidium iodide staining based flow cytometry (reference value: 92.3%); type: functional
# MGC-803 [25] = test: Induction of mitochondrial membrane potential loss in human MGC803 cells assessed as FL2 red fluorescence level at 5 uM incubated for 48 hrs by JC1 staining based flow cytometry (reference value: 5.47%); type: functional
# [26] = biological target: T3, Lysine-specific histone demethylase 1A; remark: listed apart in the source
# Description: Inhibition of recombinant LSD1 (157 to 852 amino acids) (unknown origin) expressed in Escherichia coli BL21(DE) using H3K4me2 substrate by amplex red and horseradish peroxidase based fluorescence assay
# [27] = biological target: Histone deacetylase (Homo sapiens) (UniProt Q13547+O15379+Q9UBN7+Q92769+Q9UQL6+Q8WUI4+Q9BY41+Q96DB2+P56524+Q9UKV0+Q969S8); test: Inhibition of HDAC in human MGC803 cells assessed as increase in cellular histone H3 acetylation levels incubated for 24 hrs by Western blot; type: cell-based
# MGC-803 [28] = test: Induction of apoptosis in human MGC803 cells assessed as late apoptotic cells level at 2.5 uM incubated for 24 hrs by Annexin-V-FITC/propidium iodide staining based flow cytometry (reference value: 0.447%); type: functional
# MGC-803 [29] = test: Induction of apoptosis in human MGC803 cells assessed as early apoptotic cells level at 7.5 uM incubated for 24 hrs by Annexin-V-FITC/propidium iodide staining based flow cytometry (reference value: 4.37%); type: functional
# [30] = biological target: T3, Lysine-specific histone demethylase 1A; test: Inhibition of LSD1 in human MGC803 cells assessed as increase in cellular H3K4me2 levels incubated for 24 hrs by Western blot; type: cell-based
# MGC-803 [31] = test: Induction of apoptosis in human MGC803 cells assessed as late apoptotic cells level at 7.5 uM incubated for 48 hrs by Annexin-V-FITC/propidium iodide staining based flow cytometry (reference value: 0.121%); type: functional
# MGC-803 [32] = test: Induction of apoptosis in human MGC803 cells assessed as late apoptotic cells level at 2.5 uM incubated for 48 hrs by Annexin-V-FITC/propidium iodide staining based flow cytometry (reference value: 0.121%); type: functional
# MGC-803 [33] = test: Potency index, ratio of IC50 for SAHA to IC50 for test compound for antiproliferative activity against human MGC803 cells incubated for 72 hrs by MTT assay; type: functional
# A549 = test: cells; type: functional, cell-based; conditions: Homo sapiens, A549, 72 h
# Description: Antiproliferative activity against human A549 cells incubated for 72 hrs by MTT assay
# MGC-803 [34] = test: Induction of apoptosis in human MGC803 cells assessed as late apoptotic cells level at 7.5 uM incubated for 24 hrs by Annexin-V-FITC/propidium iodide staining based flow cytometry (reference value: 0.447%); type: functional
# MGC-803 [35] = test: cells; type: functional, cell-based; conditions: Homo sapiens, MGC-803, 72 h
# Description: Antiproliferative activity against human MGC803 cells incubated for 72 hrs by MTT assay
# MGC-803 [36] = test: Induction of apoptosis in human MGC803 cells assessed as early apoptotic cells level at 5 uM incubated for 24 hrs by Annexin-V-FITC/propidium iodide staining based flow cytometry (reference value: 4.37%); type: functional
# MGC-803 [37] = test: Induction of mitochondrial membrane potential loss in human MGC803 cells assessed as FL2 red fluorescence level at 7.5 uM incubated for 48 hrs by JC1 staining based flow cytometry (reference value: 5.47%); type: functional
# MGC-803 [38] = test: Induction of apoptosis in human MGC803 cells assessed as necrotic cells level at 7.5 uM incubated for 24 hrs by Annexin-V-FITC/propidium iodide staining based flow cytometry (reference value: 0.596%); type: functional
# MGC-803 [39] = test: Induction of apoptosis in human MGC803 cells assessed as viable cells level at 5 uM incubated for 24 hrs by Annexin-V-FITC/propidium iodide staining based flow cytometry (reference value: 94.6%); type: functional
# Chain of Histone deacetylase 1 (Q13547 whole entry): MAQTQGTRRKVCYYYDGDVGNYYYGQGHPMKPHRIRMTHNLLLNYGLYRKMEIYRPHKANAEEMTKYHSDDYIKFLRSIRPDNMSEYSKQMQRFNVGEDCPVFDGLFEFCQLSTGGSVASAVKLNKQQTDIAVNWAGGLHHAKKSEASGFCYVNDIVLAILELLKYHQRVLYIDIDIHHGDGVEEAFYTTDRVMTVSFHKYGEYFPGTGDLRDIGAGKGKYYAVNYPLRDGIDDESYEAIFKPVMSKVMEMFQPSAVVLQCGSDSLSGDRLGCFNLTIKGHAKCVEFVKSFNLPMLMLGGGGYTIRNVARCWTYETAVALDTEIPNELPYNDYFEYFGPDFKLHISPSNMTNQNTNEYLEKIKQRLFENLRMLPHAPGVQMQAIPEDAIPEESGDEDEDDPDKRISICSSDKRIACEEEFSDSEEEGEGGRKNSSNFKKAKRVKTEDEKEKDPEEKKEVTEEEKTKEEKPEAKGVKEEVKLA
# Chain of Histone deacetylase 5 (Q9UQL6 whole entry, the tested form may be a part): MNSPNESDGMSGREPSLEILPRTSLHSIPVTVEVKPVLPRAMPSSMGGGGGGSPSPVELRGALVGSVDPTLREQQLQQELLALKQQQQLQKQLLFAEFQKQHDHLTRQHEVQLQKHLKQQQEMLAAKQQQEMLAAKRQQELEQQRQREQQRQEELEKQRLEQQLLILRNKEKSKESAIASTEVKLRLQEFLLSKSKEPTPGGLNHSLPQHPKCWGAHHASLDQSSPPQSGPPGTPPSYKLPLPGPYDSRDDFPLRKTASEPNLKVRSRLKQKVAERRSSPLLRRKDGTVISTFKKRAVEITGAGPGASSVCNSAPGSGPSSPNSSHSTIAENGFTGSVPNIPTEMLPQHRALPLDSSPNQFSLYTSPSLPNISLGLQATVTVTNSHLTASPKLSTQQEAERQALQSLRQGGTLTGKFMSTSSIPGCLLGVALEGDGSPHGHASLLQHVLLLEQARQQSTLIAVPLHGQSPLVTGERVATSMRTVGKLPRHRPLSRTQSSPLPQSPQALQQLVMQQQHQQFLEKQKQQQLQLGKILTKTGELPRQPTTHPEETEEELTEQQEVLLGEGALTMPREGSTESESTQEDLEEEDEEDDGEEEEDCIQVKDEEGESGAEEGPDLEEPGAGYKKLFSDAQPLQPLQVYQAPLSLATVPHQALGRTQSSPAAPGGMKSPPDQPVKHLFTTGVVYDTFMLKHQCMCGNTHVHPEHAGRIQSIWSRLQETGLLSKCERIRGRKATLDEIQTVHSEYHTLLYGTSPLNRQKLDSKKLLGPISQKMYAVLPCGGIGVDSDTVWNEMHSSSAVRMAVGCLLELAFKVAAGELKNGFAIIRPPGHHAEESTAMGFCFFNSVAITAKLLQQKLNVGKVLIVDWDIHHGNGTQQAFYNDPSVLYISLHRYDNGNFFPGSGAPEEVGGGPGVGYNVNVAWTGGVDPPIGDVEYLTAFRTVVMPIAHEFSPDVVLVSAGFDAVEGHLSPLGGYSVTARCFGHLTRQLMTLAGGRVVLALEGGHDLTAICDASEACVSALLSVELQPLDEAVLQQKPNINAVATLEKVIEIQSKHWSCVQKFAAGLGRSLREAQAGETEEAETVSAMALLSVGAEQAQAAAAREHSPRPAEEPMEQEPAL
# Chain of Histone deacetylase 2 (Q92769 whole entry): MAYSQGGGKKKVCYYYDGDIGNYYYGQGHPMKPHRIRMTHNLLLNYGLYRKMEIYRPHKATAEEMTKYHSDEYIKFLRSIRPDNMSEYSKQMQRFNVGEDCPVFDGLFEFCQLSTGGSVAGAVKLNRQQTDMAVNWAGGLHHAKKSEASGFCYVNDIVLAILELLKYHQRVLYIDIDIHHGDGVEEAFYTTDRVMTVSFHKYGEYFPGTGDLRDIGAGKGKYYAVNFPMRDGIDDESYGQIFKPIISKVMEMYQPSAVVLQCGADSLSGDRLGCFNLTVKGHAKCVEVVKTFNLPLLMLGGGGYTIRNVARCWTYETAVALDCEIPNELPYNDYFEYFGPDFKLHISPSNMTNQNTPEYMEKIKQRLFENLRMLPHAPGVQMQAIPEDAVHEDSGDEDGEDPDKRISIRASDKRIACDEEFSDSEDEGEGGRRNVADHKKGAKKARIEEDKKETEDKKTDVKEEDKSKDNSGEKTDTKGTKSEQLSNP
smiles,measurement,setting,value
O=C(CCCCCCC(=O)Nc1ccccc1)NO [VORINOSTAT],pIC50,[1],< 4.00
same,pIC50,[2],< 4.00
O=C(CCCCCCNC(=O)c1ccc(CNC2(c3ccccc3)CC2)cc1)NO,Activity,MGC-803 [3],1.22%
same,pIC50,Histone deacetylase 1,7.82
same,pIC50,SW-620,5.63
same,pIC50,MCF7,5.37
same,Activity,MGC-803 [4],41.4%
same,inhibition,[5],Dose-dependent effect
same,Activity,MGC-803 [6],37.2%
same,Activity,MGC-803 [7],46.6%
same,Activity,MGC-803 [8],Dose-dependent effect
same,pIC50,Histone deacetylase 2,7.64
same,Activity,MGC-803 [9],43.9%
same,pIC50,[1],4.06
same,Activity,MGC-803 [10],54.7%
same,inhibition,[11],inactive
same,Activity,MGC-803 [12],7.42%
same,Activity,MGC-803 [13],2.82%
same,Activity,MGC-803 [14],22.5%
same,pIC50,PC-3,5.26
same,pIC50,Histone deacetylase 5,4.77
same,Activity,MGC-803 [15],11.9%
same,Activity,MGC-803 [16],2.2%
same,Ratio IC50,[17],25
same,Activity,MGC-803 [18],2.21%
same,Activity,MGC-803 [19],1.61%
same,Activity,MGC-803 [20],11%
same,Activity,MGC-803 [21],72%
same,Activity,MGC-803 [22],42%
same,inhibition,[23],inactive
same,Activity,MGC-803 [24],25.4%
same,Activity,MGC-803 [25],83.5%
same,pIC50,[26],5.92
same,inhibition,[27],Dose-dependent effect
same,Activity,MGC-803 [28],4.27%
same,Activity,MGC-803 [29],31.7%
same,inhibition,[30],Dose-dependent effect
same,pIC50,[2],4.68
same,Activity,MGC-803 [31],49.6%
same,Activity,MGC-803 [32],35.2%
same,Ratio IC50,MGC-803 [33],10
same,pIC50,A549,5.87
same,Activity,MGC-803 [34],10.9%
same,pIC50,MGC-803 [35],6.09
same,Activity,MGC-803 [36],26.2%
same,Activity,MGC-803 [37],94%
same,Activity,MGC-803 [38],2.71%
same,Activity,MGC-803 [39],60%
O=C(/C=C/c1ccc(CNC2CC2c2ccccc2)cc1)NO (centres undefined),pIC50,Histone deacetylase 1,7.92
same,pIC50,SW-620,5.39
same,pIC50,MCF7,5.20
same,pIC50,Histone deacetylase 2,7.60
same,pIC50,[1],< 4.00
same,pIC50,PC-3,5.25
same,pIC50,Histone deacetylase 5,5.53
same,pIC50,[26],5.66
same,pIC50,[2],4.40
same,pIC50,A549,5.85
same,pIC50,MGC-803 [35],5.61
